Assay results: patent publication US20250163038A1, “CBL-B MODULATORS AND USES THEREOF” (Nimbus Clio, Inc., priority 2021, published 2025)
Where two headings read alike, the source gives them in different places.

Key:
[1] = target: Recombinant human Cbl-b (aa 36-427) (Homo sapiens, UniProt Q13191); test: Cbl-b Biochemical Assay (TR-FRET); settings: read-out: TR-FRET hCbl-b IC50
[2] = test system: Jurkat (clone E6-1) cells with NFAT luciferase reporter; test: Jurkat reporter assay (NFAT Luciferase); format: cell-based; settings: Homo sapiens
[3] = target: T1, Recombinant human c-Cbl (aa 47-435) (Homo sapiens, UniProt P22681); test: c-Cbl Biochemical Assay (TR-FRET); settings: hc-Cbl Biochemical Assay (TR-FRET); read-out: TR-FRET hcCbl IC50
T1 sequence (P22681 47-435): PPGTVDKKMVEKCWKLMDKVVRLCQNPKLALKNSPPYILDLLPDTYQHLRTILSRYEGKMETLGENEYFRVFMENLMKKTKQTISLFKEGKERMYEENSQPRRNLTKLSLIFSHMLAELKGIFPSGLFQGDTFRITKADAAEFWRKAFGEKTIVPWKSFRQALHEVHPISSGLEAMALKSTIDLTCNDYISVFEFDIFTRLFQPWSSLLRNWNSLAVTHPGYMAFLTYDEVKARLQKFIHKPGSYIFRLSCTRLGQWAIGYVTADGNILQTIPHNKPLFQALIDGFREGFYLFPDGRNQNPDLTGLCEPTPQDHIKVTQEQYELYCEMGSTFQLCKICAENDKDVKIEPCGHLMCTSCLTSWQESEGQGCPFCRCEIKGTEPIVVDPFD

[4] = Jurkat NFAT luciferase reporter cells, anti-CD3 stimulation, 6 hr, read-out: Jurkat NFAT EC50
[5] = Jurkat, 6 h, read-out: Jurkat NFAT EC50 (μM)

Recombinant human Cbl-b (aa 36-427), sequence (Q13191 36-427): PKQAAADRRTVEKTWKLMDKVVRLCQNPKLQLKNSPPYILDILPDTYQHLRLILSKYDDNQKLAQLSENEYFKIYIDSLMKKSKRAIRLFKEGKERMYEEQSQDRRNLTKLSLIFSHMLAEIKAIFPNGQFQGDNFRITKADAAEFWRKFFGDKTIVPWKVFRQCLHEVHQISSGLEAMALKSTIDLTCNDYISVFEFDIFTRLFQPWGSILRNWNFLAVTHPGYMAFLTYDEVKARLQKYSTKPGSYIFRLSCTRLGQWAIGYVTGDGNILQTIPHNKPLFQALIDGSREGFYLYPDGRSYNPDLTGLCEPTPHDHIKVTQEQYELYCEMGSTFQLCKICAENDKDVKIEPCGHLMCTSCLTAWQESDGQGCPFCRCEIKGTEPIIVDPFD

IC50 [1] | EC50 [2, 4] | IC50 [3] | Structure (SMILES) | EC50 [2, 5]
< 200 nM | < 0.2 µM | < 200 nM | Cc1c(F)c(CNCC(C)(C)O)cc2nc(-c3cccc(-c4ccc(F)cc4-c4nncn4C)c3)oc12 [AHK-4, 1-[({6-fluoro-2-[4′-fluoro-2′-(4-methyl-1,2,4-triazol-3-yl)-[1,1′-biphenyl]-3-yl]-7-methyl-1,3-benzoxazol-5-yl}methyl)amino]-2-methylpropan-2-ol] | –
< 200 nM | 0.2 to 1 µM | 1000 to 10000 nM | COC(C)(C)CNCc1cc(C(F)(F)F)c2oc(-c3cccc(-c4ccc(F)cc4-c4nncn4C)c3)nc2c1 [AI-2, N-((2-(4′-Fluoro-2′-(4-methyl-4H-1,2,4-triazol-3-yl)-[1,1′-biphenyl]-3-yl)-7-(trifluoromethyl)benzo[d]oxazol-5-yl)methyl)-2-methoxy-2-methylpropan-1-amine] | –
< 200 nM | 0.2 to 1 µM | 1000 to 10000 nM | Cn1cnnc1-c1cc(F)ccc1-c1cccc(-c2nc3cc(CNCC4(O)CCCC4)cc(C(F)(F)F)c3o2)c1 [AK-2, 1-((((2-(4′-Fluoro-2′-(4-methyl-4H-1,2,4-triazol-3-yl)-[1,1′-biphenyl]-3-yl)-7-(trifluoromethyl)benzo[d]oxazol-5-yl)methyl)amino)methyl)cyclopentan-1-ol, Acetate] | –
< 200 nM | 0.2 to 1 µM | 1000 to 10000 nM | C[C@@H](O)CNCc1cc(C(F)(F)F)c2oc(-c3cccc(-c4ccc(F)cc4-c4nncn4C)c3)nc2c1 [AL-2, (R)-1-(((2-(4′-Fluoro-2′-(4-methyl-4H-1,2,4-triazol-3-yl)-[1,1′-biphenyl]-3-yl)-7-(trifluoromethyl)benzo[d]oxazol-5-yl)methyl)amino)propan-2-ol] | –
< 200 nM | 0.2 to 1 µM | 1000 to 10000 nM | C[C@H](O)CNCc1cc(C(F)(F)F)c2oc(-c3cccc(-c4ccc(F)cc4-c4nncn4C)c3)nc2c1 [AM-2, (S)-1-(((2-(4′-Fluoro-2′-(4-methyl-4H-1,2,4-triazol-3-yl)-[1,1′-biphenyl]-3-yl)-7-(trifluoromethyl)benzo[d]oxazol-5-yl)methyl)amino)propan-2-ol] | –
< 200 nM | 1 to 10 µM | 1000 to 10000 nM | Cn1cnnc1-c1cc(F)ccc1-c1cccc(-c2nc3cc(CNCCO)cc(C(F)(F)F)c3o2)c1 [AN-2, 2-(((2-(4′-Fluoro-2′-(4-methyl-4H-1,2,4-triazol-3-yl)-[1,1′-biphenyl]-3-yl)-7-(trifluoromethyl)benzo[d]oxazol-5-yl)methyl)amino)ethan-1-ol] | –
< 200 nM | 0.2 to 1 µM | 1000 to 10000 nM | Cn1cnnc1-c1cc(F)ccc1-c1cccc(-c2nc3cc(CNCC(C)(C)O)ccc3o2)c1 [AO-2, 1-(((2-(4′-Fluoro-2′-(4-methyl-4H-1,2,4-triazol-3-yl)-[1,1′-biphenyl]-3-yl)benzo[d]oxazol-5-yl)methyl)amino)-2-methylpropan-2-ol] | –
< 200 nM | 0.2 to 1 µM | 1000 to 10000 nM | CN(Cc1cc(C(F)(F)F)c2oc(-c3cccc(-c4ccc(F)cc4-c4nncn4C)c3)nc2c1)CC(C)(C)O [AP-2, 1-(((2-(4′-Fluoro-2′-(4-methyl-4H-1,2,4-triazol-3-yl)-[1,1′-biphenyl]-3-yl)-7-(trifluoromethyl)benzo[d]oxazol-5-yl)methyl)(methyl)amino)-2-methylpropan-2-ol] | –
< 200 nM | 0.2 to 1 µM | 1000 to 10000 nM | C[C@H]1CCCN(Cc2cc(C(F)(F)F)c3oc(-c4cccc(-c5ccc(C#N)cc5-c5nncn5C)c4)nc3c2)C1 [AQ-6, (S)-2-(4-Methyl-4H-1,2,4-triazol-3-yl)-3′-(5-((3-methylpiperidin-1-yl)methyl)-7-(trifluoromethyl)benzo[d]oxazol-2-yl)-[1,1′-biphenyl]-4-carbonitrile] | –
200 to 1000 nM | 1 to 10 µM | 10000 to 50000 nM | C[C@H](Cc1nncn1C)c1cccc(-c2nc3ccc(Br)c(C(F)(F)F)c3[nH]2)c1 [AV-9, (R)-6-Bromo-2-(3-(1-(4-methyl-4H-1,2,4-triazol-3-yl)propan-2-yl)phenyl)-7-(trifluoromethyl)-1H-benzo[d]imidazole] | –
< 200 nM | 1 to 10 µM | 1000 to 10000 nM | Cn1cnnc1-c1cc(F)ccc1-c1cccc(-c2nc3cc(CO)cc(C(F)(F)F)c3[nH]2)c1 [BJ-1, (2-(4′-Fluoro-2′-(4-methyl-4H-1,2,4-triazol-3-yl)-[1,1′-biphenyl]-3-yl)-7-(trifluoromethyl)-1H-benzo[d]imidazol-5-yl)methanol] | –
< 200 nM | 1 to 10 µM | 1000 to 10000 nM | Cn1cnnc1-c1cc(F)ccc1-c1cccc(-c2nc3cc(CN[C@@H]4CCC[C@H]4O)cc(C(F)(F)F)c3[nH]2)c1 [BK-2, (1R,2R)-2-(((2-(4′-Fluoro-2′-(4-methyl-4H-1,2,4-triazol-3-yl)-[1,1′-biphenyl]-3-yl)-7-(trifluoromethyl)-1H-benzo[d]imidazol-5-yl)methyl)amino)cyclopentan-1-ol] | –
< 200 nM | 1 to 10 µM | 1000 to 10000 nM | C[C@@H]1CN(Cc2cc(C(F)(F)F)c3[nH]c(-c4cccc(-c5ccc(F)cc5-c5nncn5C)c4)nc3c2)CCO1 [BL-2, (R)-4-((2-(4′-Fluoro-2′-(4-methyl-4H-1,2,4-triazol-3-yl)-[1,1′-biphenyl]-3-yl)-7-(trifluoromethyl)-1H-benzo[d]imidazol-5-yl)methyl)-2-methylmorpholine] | –

More lines, now with the values behind:

Structure (SMILES) | IC50 [1] | EC50 [2, 4] | IC50 [3] | EC50 [2, 5]
COC(=O)c1cc(F)c2oc(-c3cc(-c4ccc(C#N)cc4-c4nncn4C)cc(C4CC4)n3)nc2c1 [AHC-1, methyl 2-{4-[4-cyano-2-(4-methyl-1,2,4-triazol-3-yl)phenyl]-6-cyclopropylpyridin-2-yl}-7-fluoro-1,3-benzoxazole-5-carboxylate] | 200 to 1000 nM | 1 to 10 µM | 1000 to 10000 nM | –
Cn1cnnc1-c1cc(C#N)ccc1-c1cc(-c2nc3cc(CO)cc(F)c3o2)nc(C2CC2)c1 [AHD-1, 4-{2-cyclopropyl-6-[7-fluoro-5-(hydroxymethyl)-1,3-benzoxazol-2-yl]pyridin-4-yl}-3-(4-methyl-1,2,4-triazol-3-yl) benzonitrile] | 200 to 1000 nM | 1 to 10 µM | 1000 to 10000 nM | –
Cn1cnnc1-c1cc(C#N)ccc1-c1cc(-c2nc3cc(CNCC4CCC4)cc(F)c3o2)nc(C2CC2)c1 [AHE-2, 4-[2-(5-{[(cyclobutylmethyl)amino]methyl}-7-fluoro-1,3-benzoxazol-2-yl)-6-cyclopropylpyridin-4-yl]-3-(4-methyl-1,2,4-triazol-3-yl) benzonitrile] | < 200 nM | < 0.2 µM | < 200 nM | –
CO[C@@H](C)CNCc1cc(C)c2oc(-c3cc(-c4ccc(F)cc4-c4nncn4C)cc(C4CC4)n3)nc2c1 [AHF-1, [(2-{6-cyclopropyl-4-[4-fluoro-2-(4-methyl-1,2,4-triazol-3-yl)phenyl]pyridin-2-yl}-7-methyl-1,3-benzoxazol-5-yl)methyl][(2S)-2-methoxypropyl]amine] | < 200 nM | < 0.2 µM | < 200 nM | –
COCCNCc1cc2nc(-c3cc(-c4ccc(F)cc4-c4nncn4C)cc(C4CC4)n3)oc2c(C)c1F [AHG-1, [(2-{6-cyclopropyl-4-[4-fluoro-2-(4-methyl-1,2,4-triazol-3-yl)phenyl]pyridin-2-yl}-6-fluoro-7-methyl-1,3-benzoxazol-5-yl)methyl](2-methoxyethyl)amine] | < 200 nM | < 0.2 µM | < 200 nM | –
CN(C)Cc1cc2nc(-c3cc(-c4ccc(F)cc4-c4nncn4C)cc(C4CC4)n3)oc2c(F)c1F [AHH-3, [(2-{6-cyclopropyl-4-[4-fluoro-2-(4-methyl-1,2,4-triazol-3-yl)phenyl]pyridin-2-yl}-6,7-difluoro-1,3-benzoxazol-5-yl)methyl]dimethylamine] | < 200 nM | – | 200 to 1000 nM | 1 to 10 µM
Cn1cnnc1-c1cc(Cl)ccc1-c1cc(-c2nc3cc(CNCC4(O)CCC4)cc(F)c3o2)nc(C2CC2)c1 [AHI-5, 1-({[(2-{4-[4-chloro-2-(4-methyl-1,2,4-triazol-3-yl)phenyl]-6-cyclopropylpyridin-2-yl}-7-fluoro-1,3-benzoxazol-5-yl)methyl]amino}methyl)cyclobutan-1-ol] | < 200 nM | < 0.2 µM | < 200 nM | –
Cc1c(F)c(CNCC2(O)CCC2)cc2nc(-c3cc(-c4ccc(F)cc4-c4nncn4C)cc(C4CC4)n3)oc12 [AHJ-1, 1-({[(2-{6-cyclopropyl-4-[4-fluoro-2-(4-methyl-1,2,4-triazol-3-yl)phenyl]pyridin-2-yl}-6-fluoro-7-methyl-1,3-benzoxazol-5-yl)methyl]amino}methyl)cyclobutan-1-ol] | < 200 nM | < 0.2 µM | < 200 nM | –
Cn1cnnc1-c1cc(F)ccc1-c1cc(-c2nc3cc(C(C)(C)O)c(F)c(F)c3o2)nc(C2CC2)c1 [AHL-7, 2-(2-{6-cyclopropyl-4-[4-fluoro-2-(4-methyl-1,2,4-triazol-3-yl)phenyl]pyridin-2-yl}-6,7-difluoro-1,3-benzoxazol-5-yl)propan-2-ol] | 200 to 1000 nM | 1 to 10 µM | 1000 to 10000 nM | –
Cn1cnnc1-c1cc(F)ccc1-c1cc(-c2nc3cc(CN)cc(F)c3o2)nc(C2CC2)c1 [AHM-3, 1-(2-{6-cyclopropyl-4-[4-fluoro-2-(4-methyl-1,2,4-triazol-3-yl)phenyl]pyridin-2-yl}-7-fluoro-1,3-benzoxazol-5-yl)methanamine] | < 200 nM | – | 200 to 1000 nM | 1 to 10 µM
